# Assays:
# [1] = test system: SDMA signal (PRMT5 inhibition) in HCT116 MTAP-deleted cells; experiment: Symmetric di-methyl arginine image-based high content screen assay (SDMA assay), HCT116 MTAP-deleted; assay type: cell-based; conditions: SDMA assay; for EC50: Homo sapiens, HCT-116, 72 h, 3 days of treatment, cell line not given, taken as HCT116 MTAP-deleted, read-out: EC50 (SDMA assay); for EC50 selectivity (SDMA assay): taken as HCT116 WT versus MTAP-deleted
# Outline: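 Read-out: per-cell mean SDMA immunofluorescence (Alexa Fluor 488 secondary), cells segmented by DAPI on a high-content imager. Compound exposure in HCT116 MTAP-deleted cells lasted until fixation on Day 3; overnight 4° C primary anti-SDMA antibody staining.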
# [2] = test system: HCT116 MTAP-deleted cells; experiment: Cell viability assay (CellTiter-Glo, 7 days), HCT116 MTAP-deleted; conditions: Homo sapiens, HCT-116, 168 h
# Procedure: Control compounds were analyzed in parallel each time for quality control.
# In Brief, on Day −1, a serial dilution of stock compounds in DMSO was performed using BioMek liquid handlers and dispensed using Echo acoustic dispenser into 384 well plates. Both tool compounds and sample compounds were spotted in the same plate for a dose response of PRMT5 inhibitors. Compound plates were stored as frozen until the cells were ready for seeding.
# On Day 0, 100 HCT WT or HCT116 MTAP-deleted cells were seeded in compound-containing 384 well plates (50 μl per well) in RPMI 1640 media supplemented with 10% heat inactivated fetal bovine serum, Glutamax and penicillin streptomycin using EL460 liquid dispenser 5 μl cassette (BioTek, part no. 7170011). After equilibrating the plate in room temperature, the cells were incubated for 7 days inside the sealed incubator set at 37 °C with 90% humidity and 5% CO2.
# On Day 7, the viability of cells was measured using a CTG assay kit (CellTitre-Glo; Promega cat no. G7573). Shortly, 40 μl per well of luminescent cell viability assay reagent were dispensed using EL460 liquid dispenser 5 μl cassette. CTG luminescence signal was measured using an EnVision plate reader (PerkinElmer) in accordance with manufacturer's instruction. The CC50 values for each compound after 7 days of treatment were calculated using 4 parameter non-linear logistical curve fit.
SMILES,EC50 [1] [nM],EC50 selectivity (SDMA assay) [1],CC50 [2] [nM]
"CC(=O)N(C)N(Cc1ccc(C(F)(F)F)cc1F)C(=O)c1cc2c(cc1F)nc(N)c1cnn(C)c12 [Example 40, N′-acetyl-4-amino-7-fluoro-N-[[2-fluoro-4-(trifluoromethyl)phenyl]methyl]-N′,1-dimethyl-pyrazolo[4,3-c]quinoline-8-carbohydrazide]",< 1,8,< 100
"Cn1ncc2c(N)nc3ccc(C(=O)N(Cc4ccc(C(F)(F)F)cn4)N4CCOCC4(C)C)cc3c21 [Example 292, 4-amino-N-(3,3-dimethylmorpholino)-1-methyl-N-((5-(trifluoromethyl)pyridin-2-yl)methyl)-1H-pyrazolo[4,3-c]quinoline-8-carboxamide]",1 to 5,80,100 to 1000
"CN(C(=O)N1CC(F)C1)N(Cc1ccc(C(F)(F)F)cn1)C(=O)c1ccc2nc(N)c3cnn(C)c3c2c1 [Example 156, 4-amino-N′-(3-fluoroazetidine-1-carbonyl)-N′,1-dimethyl-N-((5-(trifluoromethyl)pyridin-2-yl)methyl)-1H-pyrazolo[4,3-c]quinoline-8-carbohydrazide]",< 1,34,< 100
"Cn1ncc2c(N)nc3cc(Cl)c(C(=O)N(Cc4ccc(C(F)(F)F)cn4)N4CCCC4=O)cc3c21 [Example 141, 4-amino-7-chloro-1-methyl-N-(2-oxopyrrolidin-1-yl)-N-[[5-(trifluoromethyl)-2-pyridyl]methyl]pyrazolo[4,3-c]quinoline-8-carboxamide]",1 to 5,58,< 100
"CN(C(=O)C12CC(C1)C2)N(Cc1ccc(C(F)(F)F)nn1)C(=O)c1ccc2nc(N)c3cnn(C)c3c2c1 [Example 248, 4-amino-N′-(bicyclo[1.1.1]pentane-1-carbonyl)-N′,1-dimethyl-N-((6-(trifluoromethyl)pyridazin-3-yl)methyl)-1H-pyrazolo[4,3-c]quinoline-8-carbohydrazide]",1 to 5,536,100 to 1000
"CC(=O)N(CC1CC1)N(Cc1ccc(C(F)(F)F)cn1)C(=O)c1ccc2nc(N)c3cnn(C)c3c2c1 [Example 341, N′-acetyl-4-amino-N′-(cyclopropylmethyl)-1-methyl-N-((5-(trifluoromethyl)pyridin-2-yl)methyl)-1H-pyrazolo[4,3-c]quinoline-8-carbohydrazide]",1 to 5,188,< 100
"CN(C(=O)C12COC(C1)C2)N(Cc1ccc(C(F)(F)F)cn1)C(=O)c1ccc2nc(N)c3cnn(C)c3c2c1 [Example 186, 4-amino-N′,1-dimethyl-N′-(2-oxabicyclo[2.1.1]hexane-4-carbonyl)-N-[[5-(trifluoromethyl)-2-pyridyl]methyl]pyrazolo[4,3-c]quinoline-8-carbohydrazide]",1 to 5,66,100 to 1000
"CN(C(=O)C1CC1)N(Cc1cc(F)c(-c2cnn(C(F)(F)F)c2)cc1F)C(=O)c1ccc2nc(N)c3cnn(C)c3c2c1 [Example 311, 4-amino-N′-(cyclopropanecarbonyl)-N-(2,5-difluoro-4-(1-(trifluoromethyl)-1H-pyrazol-4-yl)benzyl)-N′,1-dimethyl-1H-pyrazolo[4,3-c]quinoline-8-carbohydrazide]",1 to 5,58,< 100
"CC(=O)N(C)N(Cc1ccc2scnc2c1)C(=O)c1ccc2nc(N)c3cnn(C)c3c2c1 [Example 327, N′-acetyl-4-amino-N-(benzo[d]thiazol-5-ylmethyl)-N′,1-dimethyl-1H-pyrazolo[4,3-c]quinoline-8-carbohydrazide]",1 to 5,549,< 100

# Reference: US20240254118A1, “PRMT5 INHIBITORS AND USES THEREOF” (Gilead Sciences, Inc., priority 2022, published 2024)
